According to publication PMC6987120, “Structural insights into ATP hydrolysis by the MoxR ATPase RavA and the LdcI-RavA cage-like complex” (Communications Biology, 2020):

Experiments:
[1] = target: T1, RavA (Escherichia coli, UniProt P31473); experiment: cryo-EM, […] and […] A maps with flexible fitting; format: binding; settings: 1 mM ADP; intersubunit site; spiral with five ADP, closed ring with four ADP per hexamer
T1 construct: homohexamer (6 copies), open spiral and C2-symmetric closed ring; site at the interface of adjacent monomers

[2] = target: T2, LdcI–RavA complex (Escherichia coli, UniProt P31473); experiment: cryo-EM, […] and […] A maps with flexible fitting; format: binding; settings: 2 mM ADP, 10 mM MgCl2, 0.1 mM PLP, pH 7.9; low local resolution of RavA
T2 construct: purified RavA and LdcI mixed in vitro; LdcI expressed in a ppGpp-null E. coli MG1655 host; with Inducible lysine decarboxylase

[3] = target: T2, LdcI–RavA complex; experiment: ATPase assay, inorganic phosphate by Fiske and Subbarow; format: biochemical; settings: 2 mM ATP, 10 mM MgCl2, 50 mM MES/Tris pH 5-9, 25 °C; three-fold molar excess of LdcI

T2 sequence (P31473 whole entry): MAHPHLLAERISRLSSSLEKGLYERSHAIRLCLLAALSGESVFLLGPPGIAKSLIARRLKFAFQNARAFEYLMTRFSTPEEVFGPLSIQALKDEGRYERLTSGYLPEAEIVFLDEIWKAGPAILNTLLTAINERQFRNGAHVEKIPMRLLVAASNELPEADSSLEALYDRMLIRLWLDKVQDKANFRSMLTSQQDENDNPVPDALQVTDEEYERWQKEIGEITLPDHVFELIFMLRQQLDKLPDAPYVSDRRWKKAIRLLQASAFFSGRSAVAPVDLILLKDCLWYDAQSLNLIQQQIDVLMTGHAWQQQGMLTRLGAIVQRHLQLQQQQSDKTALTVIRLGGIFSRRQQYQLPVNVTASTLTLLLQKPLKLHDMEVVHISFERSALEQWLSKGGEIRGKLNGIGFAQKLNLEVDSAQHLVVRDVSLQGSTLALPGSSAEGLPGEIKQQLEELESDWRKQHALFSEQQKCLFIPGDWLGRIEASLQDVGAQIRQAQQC
T2 sequence (P0A9H3 whole entry partner): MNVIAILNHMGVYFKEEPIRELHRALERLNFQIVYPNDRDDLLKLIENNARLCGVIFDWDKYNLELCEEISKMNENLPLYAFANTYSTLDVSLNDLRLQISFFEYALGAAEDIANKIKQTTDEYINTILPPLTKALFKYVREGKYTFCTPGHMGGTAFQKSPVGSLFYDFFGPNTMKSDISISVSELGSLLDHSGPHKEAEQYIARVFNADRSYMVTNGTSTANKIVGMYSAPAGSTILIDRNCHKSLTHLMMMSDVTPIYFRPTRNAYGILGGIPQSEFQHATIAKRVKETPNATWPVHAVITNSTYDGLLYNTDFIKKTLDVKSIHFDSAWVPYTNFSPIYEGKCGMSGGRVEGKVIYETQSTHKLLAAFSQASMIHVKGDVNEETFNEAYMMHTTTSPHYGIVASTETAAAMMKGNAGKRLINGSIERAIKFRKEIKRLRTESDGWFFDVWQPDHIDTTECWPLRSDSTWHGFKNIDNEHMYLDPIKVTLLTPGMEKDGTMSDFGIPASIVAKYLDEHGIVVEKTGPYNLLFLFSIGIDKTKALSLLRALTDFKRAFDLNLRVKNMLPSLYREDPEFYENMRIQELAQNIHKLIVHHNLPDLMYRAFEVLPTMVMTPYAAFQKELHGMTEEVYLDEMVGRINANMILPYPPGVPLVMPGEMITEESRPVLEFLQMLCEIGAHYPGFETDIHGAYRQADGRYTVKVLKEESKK
T1 sequence (P31473 whole entry): as the sequence (P31473 whole entry) above

Compound	cryo-EM, 5.96 and 6.94 A maps with flexible fitting [1]	cryo-EM, 7.6 and 7.8 A maps with flexible fitting [2]	ATPase assay, inorganic phosphate by Fiske and Subbarow [3]
Nc1ncnc2c1ncn2[C@@H]1O[C@H](COP(=O)(O)OP(=O)(O)O)[C@@H](O)[C@H]1O [ADP]	The map contains densities attributed to five ADP molecules bound to the interface	Cryo-EM maps of the two classes of the LdcI–RavA complex in ADP-bound state	–
Nc1ncnc2c1ncn2[C@@H]1O[C@H](COP(=O)(O)OP(=O)(O)OP(=O)(O)O)[C@@H](O)[C@H]1O [ATP]	–	–	RavA is still able to efficiently hydrolyse ATP in the LdcI–RavA cage
